From US6313177A, “D-mannitol derivatives as HIV aspartyl protease inhibitors” (Pharmacor Inc., priority 1999, dated 2001) come the findings set out here.

Like-named read-outs stand apart in the source and are kept apart here.

The assay concerns the target T1, recombinant HIV-1 protease (Human immunodeficiency virus type 1 group M subtype B, UniProt P04585).
T1 construct: recombinant HIV-1 protease; purchased Bachem Bioscience
Description: Fluorometric (FRET) enzymatic assay for the inhibition constant (Ki) against the HIV protease. Format: biochemical. An excerpt:
Enzymatic Assay for Determining the Inhibition Constant (Ki) of Synthetic Compounds Prepared Against the HIV Protease
This is a fluorometric assay based on the cleavage by protease of a substrate carrying a donor group (EDANS, excitation at 340 nm and emission at 490 nm) and an acceptor group (DABCYL) on each side of the cleavage site, interacting together through fluorescence resonance energy transfer (FRET). Cleavage of the substrate by protease stops energy exchange between the two groups, resulting in a time-dependent increase in fluorescence intensity that is linearly related to the extent of substrate hydrolysis.
The enzymatic assay is done at 30° C. in a spectrophotometer microcuvet, in a total volume of 400 μL. The apparatus used for readings is a UV-visible Cary 1 spectrophotometer made by Varian. The reaction is run first in the absence of protease inhibitors for 2 min, using 355 μL of buffer at pH 4.7 (sodium acetate 100 mM, NaCl 1 M, EDTA 1 mM, DTT 1 mM, dimethylsulfoxide 10%, and BSA 1 mg/mL), 40 μL of substrate H-2930 from Molecular Probes (final concentration 10 μM) and 5 μL of recombinant HIV-1 protease (final concentration 18.3 nM) purchased from Bachem Bioscience. Fluorescence readings at […] are taken continuously during the reaction, allowing determination of the enzyme's initial velocity (v0). At the end of the 2 min incubation, the potential inhibitor at a defined concentration in a volume of 2 μL is added to the reaction, and fluorescence readings are taken for another 2 min, allowing determination of enzyme velocity (vi) in the presence of the inhibitory compound. Several concentrations of the putative inhibitors are tested in the assay. After calculation of vo and vi, the inhibition constant (Ki) of the compound is determined using the equation of Henderson: [formula]
and [I]=inhibitor concentration, [S ]=substrate concentration, Km=Michaelis-Menten constant, Kiapp =apparent Ki
Note that the Michaelis-Menten constant of HIV protease is determined by running the assay without inhibitors, using several concentrations of substrate, and plotting the results as a Cornish-Bowden graph with the ratio substrate concentration/velocity as the ordinate and substrate concentration as the abscissa.

The mark [1] stands for this setting: Table 1, benzylated D-mannitol derivatives, pH 4.7, 30° C., substrate 10 μM, protease 18.3 nM.

Consider `O[C@@H]([C@H](O)[C@@H](COCc1ccccc1F)OCc1ccc(F)cc1)[C@@H](COCc1ccccc1)OCc1ccc(F)cc1` [Compound 63, 1-O-benzyl-6-O-(2-fluorobenzyl)-2,5-di-O-(4-fluorobenzyl)-D-mannitol], for which the Ki under setting [1] is 890 nM.

Consider `O[C@@H]([C@H](O)[C@@H](COCc1ccccc1)OCc1ccc(Br)cc1)[C@@H](COCc1ccccc1)OCc1ccc(Br)cc1` [Compound 18, 1,6-di-O-benzyl, 2,5-di-O-(4-bromobenzyl)-D-mannitol], for which the inhibition constant Ki under setting [1] is 2100 nM.

Regarding `OCc1ccc(CO[C@H](COCc2ccccc2)[C@@H](O)[C@H](O)[C@@H](COCc2ccccc2)OCc2ccc(CO)cc2)cc1` [Compound 45, 1,6-di-O-benzyl-2,5-di-O-(4-hydroxymethylbenzyl)-D-mannitol], the inhibition constant (Ki) worked out at 10000 nM.

As for `O[C@@H]([C@H](O)[C@@H](COCc1ccccc1)OCC=Cc1ccccc1)[C@@H](COCc1ccccc1)OCC=Cc1ccccc1` [Compound 84, 1,6-di-O-benzyl, 2,5-di-O-cinnamyl-D-mannitol], for the setting “Table 2, tetra-substituted D-mannitol derivatives, pH 4.7, 30° C., substrate 10 μM, protease 18.3 nM”, the inhibitory constant (Ki) was greater than 1000 nM.

As for `O[C@@H]([C@H](O)[C@@H](COCc1ccc(C(F)(F)F)cc1)OCc1ccc(C(F)(F)F)cc1)[C@@H](COCc1ccc(C(F)(F)F)cc1)OCc1ccc(C(F)(F)F)cc1` [Compound 11, 1,2,5,6-tetra-O-(4-trifluoromethylbenzyl)-D-mannitol], the inhibitory constant (Ki) under setting [1] is greater than 5000 nM.

`O[C@@H]([C@H](O)[C@@H](COCc1ccc(C(F)(F)F)cc1)OCc1ccccc1)[C@@H](COCc1ccc(C(F)(F)F)cc1)OCc1ccccc1` [Compound 27, 1,6-di-O-(4-trifluoromethylbenzyl)-2,5-di-O-benzyl-D-mannitol]: under setting [1], the Ki is greater than 2000 nM.

As for `O[C@@H]([C@H](O)[C@@H](COCc1ccccc1)OCc1c(F)c(F)c(F)c(F)c1F)[C@@H](COCc1ccccc1)OCc1c(F)c(F)c(F)c(F)c1F` [Compound 15, 1,6-di-O-benzyl-2,5-di-O-(pentafluorobenzyl)-D-mannitol], the Ki under setting [1] is greater than 5000 nM.

Consider `O=C(O)c1ccc(CO[C@H](COCc2ccccc2)[C@@H](O)[C@H](O)[C@@H](COCc2ccccc2)OCc2ccc(C(=O)O)cc2)cc1` [Compound 43, 1,6-di-O-benzyl-2,5-di-O-(4-carboxybenzyl)-D-mannitol], for which, under setting [1], the Ki came to 26000 nM.

On to `O[C@@H]([C@H](O)[C@@H](COCc1ccccc1)OCc1cccc(F)c1)[C@@H](COCc1ccccc1)OCc1cccc(F)c1` [Compound 20, 1,6-di-O-benzyl-2,5-di-O-(3-fluorobenzyl)-D-mannitol], for which the Ki under setting [1] turned out to be 1800 nM.

Take `Cc1ccc(COC[C@@H](OCc2ccc(C)cc2)[C@@H](O)[C@H](O)[C@@H](COCc2ccc(C)cc2)OCc2ccc(C)cc2)cc1` [Compound 50, 1,2,5,6-tetra-O-(4-methylbenzyl)-D-mannitol]: the Ki under setting [1] was greater than 1000 nM.

Take `COC(=O)c1ccc(COC[C@@H](OCc2ccccc2)[C@@H](O)[C@H](O)[C@@H](COCc2ccc(C(=O)OC)cc2)OCc2ccccc2)cc1` [Compound 29, 1,6-di-O-(4-carbomethoxybenzyl)-2,5-di-O-benzyl-D-mannitol]: under setting [1], the Ki was found to be 2000 nM.

Turning to `N#Cc1ccc(COC[C@@H](OCc2ccc(C#N)cc2)[C@@H](O)[C@H](O)[C@@H](COCc2ccc(C#N)cc2)OCc2ccc(C#N)cc2)cc1` [Compound 12, 1,2,5,6-tetra-O-(4-cyanobenzyl)-D-mannitol], under setting [1], the inhibitory constant (Ki) is 3100 nM.

`O=[N+]([O-])c1ccc(CO[C@H](COCc2ccccc2)[C@@H](O)[C@H](O)[C@H](O)COCc2ccccc2)cc1` [Compound 99, 1,6-di-O-benzyl-2-O-(4-nitrobenzyl)-D-mannitol]: the inhibitory constant (Ki) (Table 3, di- and tri-substituted D-mannitol derivatives, pH 4.7, 30° C., substrate 10 μM, protease 18.3 nM) was determined as 45000 nM.

As to `Oc1cccc(CO[C@H](COCc2ccccc2)[C@@H](O)[C@H](O)[C@@H](COCc2ccccc2)OCc2cccc(O)c2)c1` [Compound 3, 1,6-di-O-benzyl-2,5-di-O-(3-hydroxybenzyl)-D-mannitol], the Ki under setting [1] was found to be 6000 nM.

With `O[C@@H]([C@H](O)[C@@H](COCc1ccccc1)OCc1ccc(F)cc1F)[C@@H](COCc1ccccc1)OCc1ccc(F)cc1F` [Compound 23, 1,6-di-O-benzyl-2,5-di-O-(2,4-difluorobenzyl)-D-mannitol], the Ki under setting [1] was 2600 ± 500 nM.

The term Ki denotes the equilibrium dissociation constant of an inhibitor or competing ligand from its target.
